In ChEMBL document CHEMBL5143578, “Elucidation of structure-activity relationship of humulanolides and identification of humulanolide analog as a novel HSP90 inhibitor” (Bioorg Med Chem Lett, 2022):
The source made the active and inactive calls. No cut-off for these calls is given here.

Experiments:
[1] = test system: HT-1080; assay: Induction of cell morphological changes in human HT-1080 cells at 10 uM incubated for 24 hrs by phase contrast microscopic analysis; type: functional, cell-based
[2] = test system: SK-MEL-28; assay: Antiproliferative activity against human SK-MEL-28 cells incubated for 24 hrs by MTT assay; type: functional, cell-based; conditions: SK-MEL-28, 24 h
[3] = test system: PC-3; assay: Antiproliferative activity against human PC-3 cells incubated for 24 hrs by MTT assay; type: functional, cell-based; conditions: PC-3, 24 h
[4] = test system: CHL-1; assay: Antiproliferative activity against human CHL-1 cells incubated for 24 hrs by MTT assay; type: functional, cell-based; conditions: CHL-1, 24 h
[5] = test system: Ca9-22; assay: Antiproliferative activity against human Ca9-22 cells incubated for 24 hrs by MTT assay; type: functional, cell-based; conditions: Ca9-22, 24 h
[6] = test system: HCT-116; assay: Antiproliferative activity against human HCT-116 cells incubated for 24 hrs by MTT assay; type: functional, cell-based; conditions: HCT-116, 24 h
[7] = test system: HeLa; assay: Antiproliferative activity against human HeLa cells incubated for 24 hrs by MTT assay; type: functional, cell-based
[8] = test system: HT-1080; assay: Antiproliferative activity against human HT-1080 cells incubated for 24 hrs by MTT assay; type: functional, cell-based; conditions: HT-1080, 24 h
[9] = test system: A549; assay: Antiproliferative activity against human A549 cells incubated for 24 hrs by MTT assay; type: functional, cell-based; conditions: A549, 24 h
[10] = molecular target: T1, Heat shock protein HSP90 (Homo sapiens) (UniProt P07900+P08238); assay: Inhibition of HSP90 in human HT-1080 cells assessed as decrease in CDK4 protein level by measuring half-life of CDK4 protein at 20 uM measured upto 24 hrs in the presence of cycloheximide by Western blotting analysis; type: cell-based
[11] = molecular target: T1, Heat shock protein HSP90 (Homo sapiens); assay: Inhibition of HSP90 in human HT-1080 cells assessed as upregulation of HSP70 protein expression measured after 24 hrs by Western blot analysis; type: cell-based; conditions: dose 3-30 µM
[12] = molecular target: T1, Heat shock protein HSP90 (Homo sapiens); assay: Inhibition of HSP90 in human HT-1080 cells assessed as downregulation of Akt protein expression measured after 24 hrs by Western blot analysis; type: cell-based; conditions: dose 3-30 µM
[13] = test system: HT-1080; assay: Induction of cell morphological changes in human HT-1080 cells at 20 uM incubated for 24 hrs by phase contrast microscopic analysis; type: functional, cell-based
[14] = molecular target: T1, Heat shock protein HSP90 (Homo sapiens); assay: Inhibition of HSP90 in human HT-1080 cells assessed as downregulation of CDK4 protein expression measured after 24 hrs by Western blot analysis; type: cell-based; conditions: dose 3-30 µM
[15] = test system: HT-1080; assay: Upregulation of HSP70 protein expression in human HT-1080 cells by Western blotting analysis; type: functional, cell-based

| SMILES | IC50 [2] [µM] | IC50 [3] [µM] | IC50 [6] [µM] | IC50 [7] [µM] | IC50 [8] [µM] | IC50 [9] [µM] | T1/2 [10] [h] | inhibition [11] | inhibition [12] | inhibition [14] | Activity [1] | IC50 [4] [µM] | IC50 [5] [µM] | Activity [13] | Activity [15] |
| --- | --- | --- | --- | --- | --- | --- | --- | --- | --- | --- | --- | --- | --- | --- | --- |
| COC1=C2C[C@@H](C)C[C@H](OC)[C@H](O)[C@@H](C)/C=C(\C)[C@H](OC(N)=O)[C@@H](OC)/C=C\C=C(/C)C(=O)NC(=CC1=O)C2=O |  |  |  |  |  |  |  |  |  |  | Active |  |  |  |  |
| CC1(C)/C=C/[C@H](O)[C@@]2(C)O[C@@H]2CCC2=C[C@@H]1OC2=O | > 10 | > 10 | > 10 | > 10 | > 10 | > 10 |  |  |  |  |  | > 10 | > 10 |  |  |
| CC1=CCCC23C(=O)O[C@H]4[C@@H]2[C@@H]([C@H]3C1=O)C4(C)C (some centres undefined) | > 10 | > 10 | > 10 | > 10 | > 10 | > 10 |  |  |  |  |  | > 10 | > 10 |  |  |
| CC1(C)/C=C/C(=O)[C@@]2(C)O[C@@H]2CCC2=C[C@@H]1OC2=O | > 10 | > 10 | > 10 | > 10 | > 10 | > 10 |  |  |  |  |  | > 10 | > 10 |  |  |
| CC1(C)[C@H]2[C@H]3[C@@H]1OC(=O)C31CC[C@@H]3O[C@]3(C)C(=O)[C@H]21 (some centres undefined) | > 10 | > 10 | > 10 | > 10 | > 10 | > 10 |  |  |  |  |  | > 10 | > 10 |  |  |

Second part, led by results:

| IC50 [2] [µM] | IC50 [3] [µM] | IC50 [6] [µM] | IC50 [7] [µM] | IC50 [8] [µM] | IC50 [9] [µM] | T1/2 [10] [h] | inhibition [11] | inhibition [12] | inhibition [14] | SMILES | Activity [1] | IC50 [4] [µM] | IC50 [5] [µM] | Activity [13] | Activity [15] |
| --- | --- | --- | --- | --- | --- | --- | --- | --- | --- | --- | --- | --- | --- | --- | --- |
| > 10 | > 10 | > 10 | > 10 | > 10 | > 10 |  |  |  |  | C/C1=C\CCC2=C[C@H](OC2=O)C(C)(C)/C=C/[C@@H]1O |  | > 10 | > 10 |  |  |
| > 10 | > 10 | > 10 | > 10 | > 10 | > 10 |  |  |  |  | C/C1=C/CCC2=C[C@H](OC2=O)C(C)(C)/C=C\C1=O |  | > 10 | 9.89 |  |  |
| 3.43 | 1.81 | 1.22 | 4.78 | 6.54 | 3.02 | 8 | Active | Active | Active | CC1(C)/C=C/C(=O)[C@@]2(C)O[C@H]2CCC2=C[C@@H]1OC2=O |  | 3.63 | 2.94 | Active |  |
| > 10 | > 10 | > 10 | > 10 | > 10 | > 10 |  |  |  |  | C/C1=C/CC[C@@H]2C(=O)O[C@H]3[C@@H]2C(=CC3(C)C)C1=O |  | > 10 | > 10 |  |  |
| > 10 | 2.65 | 9.82 | 8.19 | 8.17 | 6.62 |  |  |  |  | C/C1=C/CCC2=C[C@H](OC2=O)C(C)(C)/C=C/C1=O |  | > 10 | 7.52 |  | Active |
| 5.26 | 3.13 | 6.59 | 8.64 | 5.31 | 5.51 |  |  |  |  | C/C1=C\CCC2=C[C@H](OC2=O)C(C)(C)/C=C/C1=O |  | 4.71 | 4.79 |  | Active |
| > 10 | > 10 | > 10 | > 10 | > 10 | > 10 |  |  |  |  | C/C1=C/CCC23C(=O)O[C@H]4[C@@H]2[C@@H](C1=O)[C@@H]3C4(C)C |  | > 10 | > 10 |  |  |
| > 10 | > 10 | > 10 | > 10 | > 10 | > 10 |  |  |  |  | CC1(C)/C=C/[C@H](O)[C@@]2(C)O[C@H]2CCC2=C[C@@H]1OC2=O |  | > 10 | > 10 |  |  |
